Test results taken from patent US20250302832A1, “PYRAZINE DERIVATIVES AND USES THEREOF” (FOGHORN THERAPEUTICS INC., priority 2022, published 2025).

Experiments:
[1] = target: T1, HiBit-BRG1 fusion protein (Homo sapiens, UniProt P51532); assay: HiBiT-BRG1 cell-based degradation assay (Nano-Glo HiBiT lytic detection, 24 h); details: HeLa cell line expressing HiBit-BRG1 and LgBit; for Dmax: read-out: BRG1 HiBit Degradation Maximum (%)
T1 construct: expressed in transfected cells
Method in brief: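 HeLa cells stably expressing HiBiT-BRG1 and LgBiT, 5000 per well, compound-treated 24 h, equilibrated 15 min at room temperature, then lysed with LgBiT-containing Nano-Glo HiBiT lytic reagent and luminescence read. % degradation normalised between DMSO (high control) and 2 μM reference BRM/BRG1 degrader (low control).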

HiBit-BRM fusion protein = target: T2, HiBit-BRM fusion protein (Homo sapiens, UniProt P51531); assay: HiBiT-BRM cell-based degradation assay (Nano-Glo HiBiT lytic detection, 24 h); details: HeLa cell line expressing HiBiT-BRM; for DC50: read-out: BRM HiBit Degradation IC50
T2 construct: expressed in transfected cells
Method in brief: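 Stable HeLa HiBiT-BRM cells treated 24 h with compounds (10-point 3-fold dilutions, 30 μM final top dose, duplicate). HiBiT levels read by Nano-Glo lytic luminescence; % degradation normalised to DMSO (high control) and 2 μM reference BRM/BRG1 degrader (low control).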

T1 sequence (P51532 whole entry, the tested form may be a part): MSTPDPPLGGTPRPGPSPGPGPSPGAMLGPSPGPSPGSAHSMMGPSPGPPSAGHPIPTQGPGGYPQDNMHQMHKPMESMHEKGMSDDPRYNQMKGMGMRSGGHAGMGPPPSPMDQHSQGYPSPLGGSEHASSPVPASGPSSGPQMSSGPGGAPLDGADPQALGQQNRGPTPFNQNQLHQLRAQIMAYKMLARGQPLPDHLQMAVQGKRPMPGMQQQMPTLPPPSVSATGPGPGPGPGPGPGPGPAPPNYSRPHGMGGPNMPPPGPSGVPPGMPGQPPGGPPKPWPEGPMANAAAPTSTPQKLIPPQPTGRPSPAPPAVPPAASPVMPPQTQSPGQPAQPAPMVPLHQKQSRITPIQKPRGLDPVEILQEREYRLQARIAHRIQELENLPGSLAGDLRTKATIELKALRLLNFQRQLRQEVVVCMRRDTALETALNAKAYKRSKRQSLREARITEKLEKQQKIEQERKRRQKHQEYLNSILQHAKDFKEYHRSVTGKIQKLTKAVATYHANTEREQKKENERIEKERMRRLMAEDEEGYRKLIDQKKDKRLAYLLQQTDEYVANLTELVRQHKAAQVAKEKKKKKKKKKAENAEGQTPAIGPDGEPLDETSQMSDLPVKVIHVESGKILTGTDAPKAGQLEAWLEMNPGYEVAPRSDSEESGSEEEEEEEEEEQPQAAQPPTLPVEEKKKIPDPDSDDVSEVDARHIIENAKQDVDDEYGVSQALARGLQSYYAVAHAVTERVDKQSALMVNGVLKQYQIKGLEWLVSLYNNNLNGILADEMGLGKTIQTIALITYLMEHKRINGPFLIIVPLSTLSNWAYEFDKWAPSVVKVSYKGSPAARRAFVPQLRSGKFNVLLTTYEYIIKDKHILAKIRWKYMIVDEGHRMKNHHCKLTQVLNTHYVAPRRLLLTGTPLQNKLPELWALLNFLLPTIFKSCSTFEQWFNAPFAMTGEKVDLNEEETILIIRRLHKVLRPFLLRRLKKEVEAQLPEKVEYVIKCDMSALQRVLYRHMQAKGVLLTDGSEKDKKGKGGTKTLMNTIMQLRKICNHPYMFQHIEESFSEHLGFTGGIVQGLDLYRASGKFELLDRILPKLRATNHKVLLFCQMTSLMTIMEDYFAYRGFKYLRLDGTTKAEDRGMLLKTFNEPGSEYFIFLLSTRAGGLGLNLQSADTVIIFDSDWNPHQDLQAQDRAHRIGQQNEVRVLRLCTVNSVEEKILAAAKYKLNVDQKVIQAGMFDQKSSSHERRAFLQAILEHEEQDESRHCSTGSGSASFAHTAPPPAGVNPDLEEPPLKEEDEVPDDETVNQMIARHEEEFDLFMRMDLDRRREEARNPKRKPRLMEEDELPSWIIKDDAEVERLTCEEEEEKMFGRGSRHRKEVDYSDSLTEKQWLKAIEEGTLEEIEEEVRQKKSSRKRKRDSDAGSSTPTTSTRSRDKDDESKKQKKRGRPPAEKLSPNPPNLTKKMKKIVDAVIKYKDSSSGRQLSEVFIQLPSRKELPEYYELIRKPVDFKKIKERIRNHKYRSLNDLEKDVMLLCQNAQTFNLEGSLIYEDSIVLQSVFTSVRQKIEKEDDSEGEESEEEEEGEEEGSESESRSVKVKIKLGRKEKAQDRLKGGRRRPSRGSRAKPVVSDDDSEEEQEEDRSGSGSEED
T2 sequence (P51531 whole entry, the tested form may be a part): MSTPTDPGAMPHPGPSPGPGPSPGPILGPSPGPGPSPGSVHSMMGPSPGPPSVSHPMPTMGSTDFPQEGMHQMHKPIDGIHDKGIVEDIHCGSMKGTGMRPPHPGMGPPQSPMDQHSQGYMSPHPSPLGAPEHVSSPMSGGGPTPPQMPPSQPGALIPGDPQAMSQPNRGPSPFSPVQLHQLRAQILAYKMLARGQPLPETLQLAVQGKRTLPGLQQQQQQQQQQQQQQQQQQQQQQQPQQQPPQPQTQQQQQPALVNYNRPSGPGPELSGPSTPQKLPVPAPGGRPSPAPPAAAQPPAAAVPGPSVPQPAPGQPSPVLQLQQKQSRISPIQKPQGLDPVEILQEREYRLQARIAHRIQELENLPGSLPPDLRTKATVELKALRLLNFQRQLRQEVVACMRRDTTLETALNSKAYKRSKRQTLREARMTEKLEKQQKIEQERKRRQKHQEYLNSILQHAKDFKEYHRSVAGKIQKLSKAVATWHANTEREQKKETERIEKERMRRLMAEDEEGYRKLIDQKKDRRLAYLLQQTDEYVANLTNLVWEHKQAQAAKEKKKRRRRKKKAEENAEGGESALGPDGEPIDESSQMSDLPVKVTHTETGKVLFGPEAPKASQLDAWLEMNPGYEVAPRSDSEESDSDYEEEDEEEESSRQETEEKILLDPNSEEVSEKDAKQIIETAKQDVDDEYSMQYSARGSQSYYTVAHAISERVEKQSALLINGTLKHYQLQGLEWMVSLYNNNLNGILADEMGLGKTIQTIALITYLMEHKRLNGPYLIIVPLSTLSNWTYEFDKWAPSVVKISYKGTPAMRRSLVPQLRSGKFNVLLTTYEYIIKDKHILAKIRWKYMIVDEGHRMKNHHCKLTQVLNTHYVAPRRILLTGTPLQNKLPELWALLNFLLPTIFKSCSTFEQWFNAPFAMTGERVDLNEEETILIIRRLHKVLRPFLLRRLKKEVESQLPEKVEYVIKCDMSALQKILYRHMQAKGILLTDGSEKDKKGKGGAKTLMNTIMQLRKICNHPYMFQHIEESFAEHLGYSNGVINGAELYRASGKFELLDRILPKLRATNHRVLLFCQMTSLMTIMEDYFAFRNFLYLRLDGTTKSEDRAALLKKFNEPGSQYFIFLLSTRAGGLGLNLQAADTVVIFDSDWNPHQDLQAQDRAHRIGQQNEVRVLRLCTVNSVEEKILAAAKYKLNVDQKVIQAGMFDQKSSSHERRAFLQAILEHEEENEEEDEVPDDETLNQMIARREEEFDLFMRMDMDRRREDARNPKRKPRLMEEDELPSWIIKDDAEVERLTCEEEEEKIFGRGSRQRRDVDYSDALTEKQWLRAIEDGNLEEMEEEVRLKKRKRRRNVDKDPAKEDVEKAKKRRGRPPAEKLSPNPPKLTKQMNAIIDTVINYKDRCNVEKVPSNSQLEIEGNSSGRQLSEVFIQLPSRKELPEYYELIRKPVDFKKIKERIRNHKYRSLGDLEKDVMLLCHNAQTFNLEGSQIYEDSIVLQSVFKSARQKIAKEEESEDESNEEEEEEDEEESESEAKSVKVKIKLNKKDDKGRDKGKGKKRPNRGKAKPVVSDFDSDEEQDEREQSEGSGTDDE

**Q.** Which results are given for `Cc1cc(-c2cc([C@H](C(=O)N3C[C@H](O)C[C@H]3C(=O)N[C@@H](C)c3ccc(-c4scnc4C)cc3)C(C)C)on2)cnc1N1CC[C@@H](c2cc3nnc(-c4ccccc4O)cc3n2C2CC2)C1` [Compound 107, (2S,4R)-1-((R)-2-(3-(6-((R)-3-(5-cyclopropyl-3-(2-hydroxyphenyl)-5H-pyrrolo[3,2-c]pyridazin-6-yl)pyrrolidin-1-yl)-5-methylpyridin-3-yl)isoxazol-5-yl)-3-methylbutanoyl)-4-hydroxy-N-((S)-1-(4-(4-methylthiazol-5-yl)phenyl)ethyl)pyrrolidine-2-carboxamide]?
**A.** Dmax [1]: < 50%; BRM HiBit Degradation Maximum (%) (HiBit-BRM fusion protein): A (“A” indicates maximum degradation ≥75%); DC50 (HiBit-BRM fusion protein): > 10 nM

**Q.** How did the Dmax [1] turn out when `Cc1ncsc1-c1ccc([C@H](C)NC(=O)[C@@H]2C[C@@H](O)CN2C(=O)[C@@H](c2cc(-c3cnc(N4CC[C@H](c5cc6nnc(-c7cc(F)cc(F)c7O)cc6n5C5CC5)C4)nc3)no2)C(C)C)cc1` [Compound 108, (2S,4R)-1-((R)-2-(3-(2-((S)-3-(5-cyclopropyl-3-(3,5-difluoro-2-hydroxyphenyl)-5H-pyrrolo[3,2-c]pyridazin-6-yl)pyrrolidin-1-yl)pyrimidin-5-yl)isoxazol-5-yl)-3-methylbutanoyl)-4-hydroxy-N-((S)-1-(4-(4-methylthiazol-5-yl)phenyl)ethyl)pyrrolidine-2-carboxamide] was run?
**A.** < 50%

**Q.** What about the “BRM HiBit Degradation Maximum (%)” value (HiBit-BRM fusion protein) of the same compound?
**A.** B (“B” indicates maximum degradation ≥50%)

**Q.** What about the DC50 (HiBit-BRM fusion protein) of the same compound?
**A.** > 10 nM

**Q.** What does the source list for `Cc1ncsc1-c1ccc([C@H](C)NC(=O)[C@@H]2C[C@@H](O)CN2C(=O)[C@@H](c2cc(-c3cnc(N4CC[C@H](c5cc6nnc(-c7cccc(F)c7O)cc6n5C5CC5)C4)nc3)no2)C(C)C)cc1` [Compound 109, (2S,4R)-1-((R)-2-(3-(2-((S)-3-(5-cyclopropyl-3-(3-fluoro-2-hydroxyphenyl)-5H-pyrrolo[3,2-c]pyridazin-6-yl)pyrrolidin-1-yl)pyrimidin-5-yl)isoxazol-5-yl)-3-methylbutanoyl)-4-hydroxy-N-((S)-1-(4-(4-methylthiazol-5-yl)phenyl)ethyl)pyrrolidine-2-carboxamide]?
**A.** Dmax [1]: < 50%; BRM HiBit Degradation Maximum (%) (HiBit-BRM fusion protein): A (“A” indicates maximum degradation ≥75%); DC50 (HiBit-BRM fusion protein): < 10 nM

**Q.** With `Cc1ncsc1-c1ccc([C@H](C)NC(=O)[C@@H]2C[C@@H](O)CN2C(=O)[C@@H](c2cc(-c3cnc(N4CC[C@@H](c5cc6nnc(-c7cc(F)cc(F)c7O)cc6n5C5CC5)C4)nc3)no2)C(C)C)cc1` [Compound 111, (2S,4R)-1-((R)-2-(3-(2-((R)-3-(5-cyclopropyl-3-(3,5-difluoro-2-hydroxyphenyl)-5H-pyrrolo[3,2-c]pyridazin-6-yl)pyrrolidin-1-yl)pyrimidin-5-yl)isoxazol-5-yl)-3-methylbutanoyl)-4-hydroxy-N-((S)-1-(4-(4-methylthiazol-5-yl)phenyl)ethyl)pyrrolidine-2-carboxamide] as the compound, how does the Dmax [1] read?
**A.** < 50%

**Q.** What about the “BRM HiBit Degradation Maximum (%)” value (HiBit-BRM fusion protein) of the same compound?
**A.** A (“A” indicates maximum degradation ≥75%)

**Q.** What about the DC50 (HiBit-BRM fusion protein) of the same compound?
**A.** < 10 nM

**Q.** Which results are given for `Cc1ncsc1-c1ccc([C@H](C)NC(=O)[C@@H]2C[C@@H](O)CN2C(=O)[C@@H](c2cc(-c3cnc(N4CC[C@H](c5cc6nnc(-c7ccccc7O)cc6n5C5CCC5)C4)nc3)no2)C(C)C)cc1` [Compound 112, (2S,4R)-1-((R)-2-(3-(2-((S)-3-(5-cyclobutyl-3-(2-hydroxyphenyl)-5H-pyrrolo[3,2-c]pyridazin-6-yl)pyrrolidin-1-yl)pyrimidin-5-yl)isoxazol-5-yl)-3-methylbutanoyl)-4-hydroxy-N-((S)-1-(4-(4-methylthiazol-5-yl)phenyl)ethyl)pyrrolidine-2-carboxamide]?
**A.** Dmax [1]: > 50%; DC50 ([1]; read-out: BRMG1 HiBit Degradation IC50): > 10 nM; BRM HiBit Degradation Maximum (%) (HiBit-BRM fusion protein): A (“A” indicates maximum degradation ≥75%); DC50 (HiBit-BRM fusion protein): > 10 nM
